How the values were obtained:
Assay in all cases: relative viability (nuclei count vs DMSO), 5 days (fraction); higher = more cells survive
Dasatinib = compound: Cc1nc(Nc2ncc(C(=O)Nc3c(C)cccc3Cl)s2)cc(N2CCN(CCO)CC2)n1 [Dasatinib]
Summary of the method: (§1)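 Cells of lung cancer lines were placed in 1536-well plates and kept overnight at 37 °C. Pinning then delivered five library-drug doses (not always all listed), spaced by √10, onto plates anchored with vehicle, and the cells were left 5 days without changing medium. One step fixed, permeabilised and stained them with Hoechst, and MetaXpress counted nuclei in 4× images. Viability, as a median over plates, is treated-well nuclei divided by vehicle-well nuclei, with acceptance only at control CV below 25% and at least one doubling.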

ALW-II-49-7 = compound: Cc1ccc(C(=O)Nc2cccc(C(F)(F)F)c2)cc1Nc1cncc(C(N)=O)c1 [ALW-II-49-7]
Summary of the method: as §1

XMD13-2 = compound: C1CC1C(=O)NC2=NNC3=C2C=CC(=C3)C4=CC(=CC=C4)C(=O)NC5CC5 [XMD13-2]
Summary of the method: as §1

| Cell Line | relative viability (Dasatinib; 0.005 µM) | relative viability (Dasatinib; 0.01581 µM) | relative viability (Dasatinib; 0.05 µM) | relative viability (Dasatinib; 0.1581 µM) | relative viability (Dasatinib; 0.5 µM) | relative viability (ALW-II-49-7; 0.08 µM) | relative viability (ALW-II-49-7; 0.253 µM) | relative viability (ALW-II-49-7; 0.8 µM) | relative viability (ALW-II-49-7; 2.53 µM) | relative viability (ALW-II-49-7; 8 µM) | relative viability (XMD13-2; 0.05 µM) | relative viability (XMD13-2; 0.1581 µM) | relative viability (XMD13-2; 0.5 µM) | relative viability (XMD13-2; 1.581 µM) | relative viability (XMD13-2; 5 µM) | relative viability (Dasatinib; 0.075 µM, anchor plate) |
| --- | --- | --- | --- | --- | --- | --- | --- | --- | --- | --- | --- | --- | --- | --- | --- | --- |
| NCI-H1299 | 1.04 | 0.996 | 0.998 | 0.886 | 0.263 | 1.05 | 1.05 | 0.938 | 0.921 | 0.843 | 0.984 | 1.04 | 1.05 | 1.04 | 1.09 | – |
| NCI-H1355 | 1 | 0.83 | 0.998 | 0.781 | 0.582 | 0.939 | 0.963 | 0.953 | 0.957 | 0.928 | 1.12 | 0.961 | 0.995 | 0.949 | 1.02 | 0.731 |
| NCI-H1395 | 0.91 | 1.03 | 0.783 | 0.442 | 0.429 | 0.941 | 0.992 | 1.1 | 0.917 | 0.851 | 1.06 | 0.918 | 0.948 | 0.852 | 1 | 0.435 |
| NCI-H1437 | 1.05 | 1.05 | 1.04 | 0.887 | 0.348 | 0.985 | 0.989 | 0.973 | 0.994 | 0.947 | 0.984 | 0.992 | 1.02 | 0.941 | 1.06 | 0.443 |
| NCI-H1563 | 0.901 | 0.703 | 0.735 | 0.619 | 0.584 | 0.962 | 0.993 | 0.957 | 0.941 | 0.887 | 1.07 | 1.03 | 1.09 | 0.966 | 1.06 | 0.465 |
| NCI-H1623 | 0.97 | 0.851 | 0.935 | 0.767 | 0.564 | 0.934 | 0.903 | 0.947 | 0.967 | 0.91 | 0.948 | 1.03 | 0.879 | 0.89 | 0.965 | 0.542 |
| NCI-H1648 | 1.26 | 0.938 | 1.03 | 0.405 | 0.192 | 0.633 | 0.839 | 0.676 | 0.683 | 0.797 | 1.14 | 0.764 | 0.84 | 0.94 | 0.814 | – |
| NCI-H1650 | 0.868 | 0.769 | 0.6 | 0.388 | 0.338 | 0.854 | 0.789 | 0.836 | 0.985 | 0.985 | 1.08 | 0.936 | 1.17 | 0.951 | 0.907 | 0.336 |
| NCI-H1651 | 1.01 | 0.902 | 0.91 | 0.817 | 0.758 | 1.09 | 0.923 | 0.956 | 0.952 | 0.943 | 1.06 | 0.95 | 1.03 | 1.02 | 1.04 | 0.391 |
| NCI-H1666 | 0.995 | 1 | 1.02 | 0.829 | 0.478 | 0.988 | 0.943 | 0.92 | 1.24 | 1.04 | 1.05 | 1.05 | 0.997 | 0.994 | 0.964 | 0.851 |
| NCI-H1703 | 0.482 | 0.457 | 0.311 | 0.177 | 0.148 | 0.982 | 0.981 | 0.734 | 0.429 | 0.434 | 1.29 | 1.33 | 1.05 | 0.764 | 1.06 | – |
| NCI-H1734 | 0.863 | 0.772 | 0.777 | 0.508 | 0.51 | 0.933 | 1.04 | 1.01 | 0.886 | 0.822 | 1.1 | 0.848 | 1.03 | 0.869 | 0.748 | 0.481 |
| NCI-H1755 | 0.964 | 0.868 | 0.747 | 0.544 | 0.363 | 0.975 | 1.03 | 1.02 | 0.968 | 0.897 | 1.07 | 0.997 | 0.994 | 0.985 | 1.04 | 0.44 |
| NCI-H1792 | 0.844 | 0.773 | 0.643 | 0.653 | 0.277 | 0.679 | 0.873 | 0.915 | 0.73 | 0.654 | 1.09 | 0.907 | 0.925 | 0.808 | 1.12 | 0.827 |
| NCI-H1793 | 0.635 | 0.543 | 0.537 | 0.457 | 0.414 | 0.984 | 0.894 | 0.757 | 0.836 | 0.934 | 1.27 | 0.721 | 1.07 | 0.977 | 1.12 | 0.391 |
| NCI-H1915 | 0.966 | 0.987 | 0.903 | 0.492 | 0.256 | 0.993 | 1.01 | 0.945 | 0.85 | 0.544 | 1.02 | 0.958 | 1.08 | 0.985 | 1 | 0.315 |
| NCI-H1944 | 0.918 | 0.902 | 0.644 | 0.286 | 0.208 | 0.997 | 0.91 | 0.949 | 0.934 | 0.893 | 1.11 | 0.958 | 1.06 | 1.18 | 0.977 | 0.228 |
| NCI-H1975 | 0.83 | 0.768 | 0.78 | 0.545 | 0.282 | 0.956 | 0.996 | 0.757 | 0.855 | 0.841 | 1.23 | 1.01 | 0.98 | 1.1 | 0.961 | 0.378 |
